{"source": "patent US7579432B2", "about": "“Cyclic peptides as G-protein-coupled receptor antagonists” (Promics Pty Limited, priority 2001, dated 2009)", "system": "neutropenia caused by i.v. LPS", "test": "LPS-induced neutropenia (endotoxaemia model)", "format": "in vivo, rat", "conditions": "topical in 50% DMSO/50% H2O, 60 min before LPS 1 mg/kg i.v.", "method": "The in vivo pharmacological properties of cyclic antagonists were examined following topical dermal administration. A model of endotoxaemia was used, in which 1 mg/kg Escherichia coli […] (LPS; serotype 55:B5, Sigma, USA, stored at 100 mg ml^−1 in dH2O, 4° C.), was injected i.v into a rat, resulting in acute changes in circulating PMN levels and blood pressure. These parameters were measured in the presence and absence of C5aR antagonists (1 mg/kg i.v or 50 mg/kg/rat topically). […] Female Wistar rats weighing between 200-250 g were used for in vivo testing of all C5a receptor antagonists. Rats were anaesthetized using the procedure described above, and transferred on to a heating pad to ensure that body temperature was maintained throughout the experiment. A catheter was inserted in the femoral vein, secured with a suture and flushed with 100 μL of heparinised saline. […] All agents infused i.v were injected over a 2 min period, and were followed with a subsequent injection of 100 μL of saline to ensure complete delivery of the drug. Whole blood samples (0.1 mL) were collected from the tail vein at the time of drug and LPS or C5a administration. Samples were collected at −15, 0, 5, 10, 15, 30, 60, 90, 120 and 150 min relative to the injection of LPS (zero time), and placed in tubes containing heparin (500 Units/mL). To isolate PMNs, 100 μL of blood was layered on to 200 μL of Histopaque 1077 (Sigma U.S.A.) solution and centrifuged at 400×g for 30 min min at room temperature (25° C.). The supernatant layer of platelet-rich plasma, the monocyte and lymphocyte interface and the separation layer of Histopaque were removed and discarded, leaving the PMN and red blood-cell rich layer. […] The number of PMNs was counted on a haemocytometer. The number of cells at each time point was calculated as a percentage of the total number of cells at time zero, prior to complement challenge or LPS. […] Circulating PMN levels were monitored for 150 min following LPS injection, and the percentage change in PMN levels from zero time, when LPS was injected, was calculated.", "note": "Bridge positions count the residues as written; N and C are the ends. Square brackets hold non-standard residues; d marks the D form. Peptide text beside a SMILES is read from it. * marks the point of attachment. Hydrocinnamoyl = O=C(CCc1ccccc1)*; dCha = N[C@H](CC1CCCCC1)C(=O)O; Orn = NCCC[C@H](N)C(=O)O", "data": [{"smiles": "N=C(N)NCCC[C@@H]1NC(=O)[C@H](Cc2c[nH]c3ccccc23)NC(=O)[C@@H](CC2CCCCC2)NC(=O)[C@@H]2CCCN2C(=O)[C@@H](NC(=O)CCc2ccccc2)CCCNC1=O", "note": "[Compound 17, HC[OP-dCha-WR]] (Hydrocinnamoyl-[Orn]P[dCha]WR; lactam 1-C)", "values": [{"measurement": "neutropenia response to i.v. LPS", "value": "inhibited the neutropenia response"}]}, {"smiles": "CC(=O)N[C@@H](Cc1ccccc1)C(=O)N[C@H]1CCCNC(=O)[C@H](CCCNC(N)=O)NC(=O)[C@H](Cc2c[nH]c3ccccc23)NC(=O)[C@@H](CC2CCCCC2)NC(=O)[C@@H]2CCCN2C1=O", "note": "[Compound 45, AcF[OPdChaW-Cit]]", "values": [{"measurement": "neutropenia response to i.v. LPS", "value": "inhibited the neutropenia response"}]}]}
